Reference: US10973810B2, “Methods for the treatment of neurological disorders” (Yumanity Therapeutics, Inc., priority 2017, dated 2021)

Assays:
Format in all cases: cell-based
[1] = target: T1, human SCD5 (Homo sapiens, UniProt Q86SK9); test: Growth of humanized yeast surviving solely on human SCD5; conditions: growth inhibition
T1 construct: host or cells: S. cerevisiae ole1Δ strain (W303 pdr1Δ pdr3Δ background), plasmid pRS316 with TDH3 promoter and CYC1 terminator
T1 sequence (Q86SK9 1-330): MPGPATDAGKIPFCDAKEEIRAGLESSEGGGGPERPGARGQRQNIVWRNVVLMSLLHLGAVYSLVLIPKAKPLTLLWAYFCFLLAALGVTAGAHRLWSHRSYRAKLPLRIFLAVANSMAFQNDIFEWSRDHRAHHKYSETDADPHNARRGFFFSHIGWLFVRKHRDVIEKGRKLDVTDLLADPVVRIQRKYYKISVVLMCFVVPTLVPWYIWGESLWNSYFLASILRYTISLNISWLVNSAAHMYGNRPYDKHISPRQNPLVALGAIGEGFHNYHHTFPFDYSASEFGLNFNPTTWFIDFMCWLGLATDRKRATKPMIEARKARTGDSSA
Text: (§1) To generate yeast strains expressing SCD1 or SCD5 as the sole desaturase, the human SCD1 and SCD5 genes were cloned from cDNAs (Harvard PlasmID database Clone ID HsCD00340237 for SCD1 and HsCD00342695 for SCD5) into yeast plasmid pRS316 (ATCC 77145) between the yeast TDH3 promoter and the CYC1 terminator. The coding sequence of yeast OLE1 was also cloned into this plasmid). These clones were then transformed into the ole1d strain and plated on CSM-Ura media (CSM lacking uracil) with 2% glucose (w/v) and independent colonies were isolated and amplified.
(§2) For experiments using a plasmid-borne copy of Ole1, SCD1, or SCD5 (FIGS. 3B, 6, and 7), media lacking uracil (SX-Ura, where X is glucose, raffinose, or galactose), was used for all steps of the compound profiling protocol to ensure its maintenance throughout the assay.
(§3) After yeast delivery, assay plates were incubated under humidified conditions at 30° C. for 24 to 40 h. ApoE4 rescue experiments were stopped at 24 h, aSyn experiments at 40 h, Ole1 at 24 h, and SCD1/SCD5 at 40 h. The growth of yeast was monitored by reading the OD600 of each well using a microplate reader (Perkin Elmer EnVision™). For model rescue experiments, raw data were processed by background subtracting and calculating a fold-change relative to DMSO control [(EXP-0.035)/(DMSO-0.035)—where 0.035 is the OD600 contributed by an empty well containing 30 μL of media alone]. For growth inhibition of wild-type cells, raw data were processed by background subtracting and converting values to a percent of the nontreated condition for that strain [(EXP-0.035)/(DMSO-0.035)×100%].

[2] = target: T2, human SCD1 (Homo sapiens, UniProt O00767); test: Growth of humanized yeast surviving solely on human SCD1; conditions: growth inhibition
T2 construct: host or cells: S. cerevisiae ole1Δ strain (W303 pdr1Δ pdr3Δ background), plasmid pRS316 with TDH3 promoter and CYC1 terminator
T2 sequence (O00767 1-359): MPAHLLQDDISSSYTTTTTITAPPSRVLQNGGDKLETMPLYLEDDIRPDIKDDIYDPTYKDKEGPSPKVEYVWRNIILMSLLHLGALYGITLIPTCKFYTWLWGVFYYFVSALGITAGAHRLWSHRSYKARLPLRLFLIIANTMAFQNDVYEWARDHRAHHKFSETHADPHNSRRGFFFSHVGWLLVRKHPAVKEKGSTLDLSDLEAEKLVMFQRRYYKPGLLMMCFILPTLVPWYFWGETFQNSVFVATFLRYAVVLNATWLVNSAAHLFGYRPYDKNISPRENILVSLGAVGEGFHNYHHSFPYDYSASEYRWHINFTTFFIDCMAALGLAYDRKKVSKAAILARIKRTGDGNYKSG
Text: The coding sequence of yeast OLE1 was also cloned into this plasmid). These clones were then transformed into the ole1d strain and plated on CSM-Ura media (CSM lacking uracil) with 2% glucose (w/v) and independent colonies were isolated and amplified.
as §2
After yeast delivery, assay plates were incubated under humidified conditions at 30° C. for 24 to 40 h. ApoE4 rescue experiments were stopped at 24 h, aSyn experiments at 40 h, Ole1 at 24 h, and SCD1/SCD5 at 40 h. The growth of yeast was monitored by reading the OD600 of each well using a microplate reader (Perkin Elmer EnVision™).

[3] = target: T3, yeast OLE1 (Saccharomyces cerevisiae, UniProt P21147, L450T/T449L); test: Growth of yeast surviving solely on yeast OLE1; conditions: 24 h
T3 construct: expressed in transfected cells; host or cells: S. cerevisiae ole1Δ strain (W303 pdr1Δ pdr3Δ background), plasmid pRS316 with TDH3 promoter and CYC1 terminator
Text: as §1, §2, §3

T3 sequence (P21147 whole entry T449L/L450T): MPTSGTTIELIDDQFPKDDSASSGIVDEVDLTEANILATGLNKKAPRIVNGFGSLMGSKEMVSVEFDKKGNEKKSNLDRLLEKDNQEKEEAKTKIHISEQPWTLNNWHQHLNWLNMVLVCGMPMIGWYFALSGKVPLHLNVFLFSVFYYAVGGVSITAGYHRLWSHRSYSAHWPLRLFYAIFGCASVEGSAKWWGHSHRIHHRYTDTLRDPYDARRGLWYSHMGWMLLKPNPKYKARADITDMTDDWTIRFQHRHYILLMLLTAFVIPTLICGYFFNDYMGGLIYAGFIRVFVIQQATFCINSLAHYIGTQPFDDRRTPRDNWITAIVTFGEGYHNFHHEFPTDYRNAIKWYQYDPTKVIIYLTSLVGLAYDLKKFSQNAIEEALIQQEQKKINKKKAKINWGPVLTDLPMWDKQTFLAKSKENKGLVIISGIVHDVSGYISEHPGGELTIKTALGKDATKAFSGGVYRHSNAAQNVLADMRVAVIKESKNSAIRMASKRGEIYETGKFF

Cc1nnc(-c2ccc(N3CCC(Oc4cc(F)ccc4Cl)CC3)nn2)o1 [CAY10566]
half-maximal inhibitory concentration (IC50), SCD5 humanized strain [1]: low nanomolar | half-maximal inhibitory concentration (IC50), SCD1 humanized strain [2]: low nanomolar | growth of yeast strain expressing Ole1 (percent of DMSO-treated condition) [3]: resistant
